In the kinase profiling compilation of Christmann-Franck et al. (2016) one finds residual activity data, which are given here for 16 compounds.

What all share (experiment): radiometric filter-binding kinase assay, Kinase HotSpot
Holding throughout (settings): compound 0.5 µM; ATP 10 µM

In assay [1] the test system is FLT4 (human), P35916 [Q890H].
Assay [2] deals with MAP2K6 (human), P52564 [S207E/T211E].
Assay [3] relates to MKNK1 (human), Q9BUB5 [T385D; 165-205 del].
The test system of assay [4] is PRKCQ (human), Q04759 [P330L].
Chain of PRKCQ (human), Q04759 [P330L] (Q04759 whole entry P330L, looked up): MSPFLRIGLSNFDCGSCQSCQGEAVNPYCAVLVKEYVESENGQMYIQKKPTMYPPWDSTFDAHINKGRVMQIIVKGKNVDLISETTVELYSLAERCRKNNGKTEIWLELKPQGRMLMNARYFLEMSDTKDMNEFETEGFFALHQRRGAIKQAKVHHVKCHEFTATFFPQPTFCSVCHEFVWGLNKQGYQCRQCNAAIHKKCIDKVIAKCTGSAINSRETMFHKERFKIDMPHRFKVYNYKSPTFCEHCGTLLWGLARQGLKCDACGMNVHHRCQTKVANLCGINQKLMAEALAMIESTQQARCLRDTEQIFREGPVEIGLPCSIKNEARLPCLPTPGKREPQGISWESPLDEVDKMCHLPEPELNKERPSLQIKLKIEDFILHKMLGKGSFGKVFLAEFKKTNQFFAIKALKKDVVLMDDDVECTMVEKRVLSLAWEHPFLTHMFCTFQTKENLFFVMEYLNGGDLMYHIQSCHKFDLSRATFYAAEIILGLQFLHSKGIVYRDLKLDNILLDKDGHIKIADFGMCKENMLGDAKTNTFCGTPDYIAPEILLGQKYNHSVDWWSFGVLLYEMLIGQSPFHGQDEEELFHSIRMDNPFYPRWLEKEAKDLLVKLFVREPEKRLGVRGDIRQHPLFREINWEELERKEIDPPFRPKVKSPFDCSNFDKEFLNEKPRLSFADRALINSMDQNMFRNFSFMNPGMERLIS

Chain of MAP2K6 (human), P52564 [S207E/T211E] (P52564 whole entry S207E/T211E, looked up): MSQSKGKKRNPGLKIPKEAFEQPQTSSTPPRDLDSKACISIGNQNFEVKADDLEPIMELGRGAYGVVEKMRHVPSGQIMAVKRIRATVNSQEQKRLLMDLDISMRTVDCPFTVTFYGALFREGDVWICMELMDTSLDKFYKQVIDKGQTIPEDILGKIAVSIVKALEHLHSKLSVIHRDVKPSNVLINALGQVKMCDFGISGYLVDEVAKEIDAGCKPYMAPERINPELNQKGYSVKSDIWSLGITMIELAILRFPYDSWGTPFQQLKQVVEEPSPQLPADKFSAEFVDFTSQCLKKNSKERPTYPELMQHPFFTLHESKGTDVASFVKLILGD
Chain of MKNK1 (human), Q9BUB5 [T385D; 165-205 del] (Q9BUB5 whole entry, looked up, stated change not applied): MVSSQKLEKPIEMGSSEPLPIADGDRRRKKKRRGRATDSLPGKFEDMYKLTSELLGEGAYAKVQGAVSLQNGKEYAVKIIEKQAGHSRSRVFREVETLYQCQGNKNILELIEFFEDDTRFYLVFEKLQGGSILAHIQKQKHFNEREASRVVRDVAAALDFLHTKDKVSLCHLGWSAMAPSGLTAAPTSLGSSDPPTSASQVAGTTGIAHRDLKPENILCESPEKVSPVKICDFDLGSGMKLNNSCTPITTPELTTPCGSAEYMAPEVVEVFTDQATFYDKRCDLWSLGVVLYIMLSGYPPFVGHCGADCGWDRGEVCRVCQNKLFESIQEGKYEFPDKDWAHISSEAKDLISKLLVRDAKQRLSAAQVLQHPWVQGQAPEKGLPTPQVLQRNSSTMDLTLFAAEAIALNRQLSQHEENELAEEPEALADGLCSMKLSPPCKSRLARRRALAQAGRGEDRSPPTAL
Chain of FLT4 (human), P35916 [Q890H] (P35916 whole entry, looked up, stated change not applied): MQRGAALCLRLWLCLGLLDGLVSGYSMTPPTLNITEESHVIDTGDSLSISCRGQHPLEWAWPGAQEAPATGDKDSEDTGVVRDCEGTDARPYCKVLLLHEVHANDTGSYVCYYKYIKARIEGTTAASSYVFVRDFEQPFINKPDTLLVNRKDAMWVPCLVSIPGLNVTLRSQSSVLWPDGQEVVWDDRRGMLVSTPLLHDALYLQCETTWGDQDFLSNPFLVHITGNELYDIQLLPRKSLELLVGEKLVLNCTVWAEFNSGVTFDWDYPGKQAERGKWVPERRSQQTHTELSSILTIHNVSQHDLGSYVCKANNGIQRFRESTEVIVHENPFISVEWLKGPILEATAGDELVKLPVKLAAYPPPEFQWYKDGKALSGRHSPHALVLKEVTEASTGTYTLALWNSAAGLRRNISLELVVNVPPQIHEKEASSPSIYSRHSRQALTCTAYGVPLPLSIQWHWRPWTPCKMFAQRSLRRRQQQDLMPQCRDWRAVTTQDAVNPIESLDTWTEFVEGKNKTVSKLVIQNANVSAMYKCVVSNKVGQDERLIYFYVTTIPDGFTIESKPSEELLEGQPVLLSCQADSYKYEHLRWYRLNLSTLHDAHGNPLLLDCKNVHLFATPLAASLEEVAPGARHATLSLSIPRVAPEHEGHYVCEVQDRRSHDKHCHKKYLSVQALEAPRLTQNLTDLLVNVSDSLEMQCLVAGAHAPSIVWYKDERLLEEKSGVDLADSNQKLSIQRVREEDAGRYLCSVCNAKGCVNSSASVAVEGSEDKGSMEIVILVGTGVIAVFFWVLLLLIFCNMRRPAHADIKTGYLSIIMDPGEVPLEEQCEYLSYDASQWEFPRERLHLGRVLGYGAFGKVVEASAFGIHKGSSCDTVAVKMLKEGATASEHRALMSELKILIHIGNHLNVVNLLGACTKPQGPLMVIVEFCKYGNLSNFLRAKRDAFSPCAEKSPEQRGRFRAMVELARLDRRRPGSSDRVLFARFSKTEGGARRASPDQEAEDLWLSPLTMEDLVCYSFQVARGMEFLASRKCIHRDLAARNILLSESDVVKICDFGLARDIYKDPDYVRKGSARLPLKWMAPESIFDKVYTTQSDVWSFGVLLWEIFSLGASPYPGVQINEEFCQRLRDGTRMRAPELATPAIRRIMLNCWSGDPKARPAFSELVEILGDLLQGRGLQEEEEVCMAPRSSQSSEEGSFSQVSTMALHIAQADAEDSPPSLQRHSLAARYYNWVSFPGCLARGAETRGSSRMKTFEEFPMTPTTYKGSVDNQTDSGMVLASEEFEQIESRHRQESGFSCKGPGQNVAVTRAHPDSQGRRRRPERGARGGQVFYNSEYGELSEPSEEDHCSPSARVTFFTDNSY

With `CCN(CC)CCCCN1c2ccccc2Oc2ccc(Cl)cc21`, the residual activity (as a rule, the signal under treatment as a percentage of the control signal) came out at 98.8% in assay [1], 102% in assay [2], 95.6% in assay [3] and 97.5% in assay [4].

Regarding `Nc1nccc(-c2c(-c3ccc(F)cc3)ncn2C2CCNCC2)n1`, the residual activity turned out to be 116% in assay [1], 106% in assay [2], 99% in assay [3] and 107% in assay [4].

Take `COc1ccc(OC)c2c(=S)c3ccccc3[nH]c12`: the residual activity in assay [1] came to 98.1%; in assay [2], 89.9%; in assay [3] it was 115%; in assay [4], 98.9%.

In the case of `CCC(=O)Nc1ccc2ncnc(Nc3cccc(Br)c3)c2c1`, the residual activity in assay [1] was 91.5%; in assay [2] it was 94.5%; in assay [3] it was 82.8%; in assay [4], 96.3%.

In the case of `O=C1Nc2ccccc2/C1=C\c1c(Cl)[nH]c2ccccc12`, the residual activity in assay [1] was 108%; in assay [2], 93.4%; in assay [3] it was 105%; in assay [4], 91.7%.

In the case of `CCN(CC)CCNC(=O)c1c(C)[nH]c(/C=C2\C(=O)Nc3ccc(Cl)cc32)c1C`, the residual activity stood at 12.1% in assay [1], 86.2% in assay [2], 75.4% in assay [3] and 105% in assay [4].

With `Cc1[nH]c(/C=C2\C(=O)Nc3ccc(S(=O)(=O)N(C)c4cccc(Cl)c4)cc32)c(C)c1C(=O)N1CCN(C)CC1`, the residual activity in assay [1] is 55.1%; in assay [2] it was 91.9%; in assay [3], 105%; in assay [4], 107%.

For `Nc1ncnc2c1cnn2-c1ccccc1`, the residual activity in assay [1] was determined as 108%; in assay [2] it was 90.8%; in assay [3], 81.4%; in assay [4] it was 102%.

As to `CCn1cnc2c(Nc3cccc(Cl)c3)nc(N[C@@H]3CCCC[C@@H]3N)nc21`, the residual activity in assay [1] was 105%; in assay [2] it was 100%; in assay [3], 101%; in assay [4] it was 93.3%.

Consider `Clc1ccc(Nc2nnc(Cc3ccncc3)c3ccccc23)cc1`, for which the residual activity was found to be 62.8% in assay [1], 95.3% in assay [2], 98.5% in assay [3] and 73.5% in assay [4].

For the compound `O=C1NC(=O)C(c2cn(CCCn3ccnc3)c3ccccc23)=C1Nc1ccccc1`, the residual activity in assay [1] worked out at 95.8%; in assay [2] it was 103%; in assay [3] it was 99.3%; in assay [4] it was 37.2%.

For the compound `CC(C)[C@H](CO)Nc1nc(Nc2cc(N)cc(Cl)c2)c2ncn(C(C)C)c2n1`, the residual activity in assay [1] worked out at 80.7%; in assay [2], 92.5%; in assay [3], 99.1%; in assay [4], 119%.

Consider `CC(C)n1cnc2c(Nc3cccc(Cl)c3)nc(NCCO)nc21`, for which the residual activity amounted to 92.6% in assay [1], 88.9% in assay [2], 98.7% in assay [3] and 91.4% in assay [4].

As for `O=C(NC(NC(=S)Nc1ccc(F)c([N+](=O)[O-])c1)C(Cl)(Cl)Cl)C(c1ccccc1)c1ccccc1` (centres undefined), the residual activity worked out at 102% in assay [1], 107% in assay [2], 100% in assay [3] and 107% in assay [4].

For `O=c1cc(N2CCOCC2)oc2c1ccc1ccccc12`, the residual activity in assay [1] came out at 112%; in assay [2], 94.1%; in assay [3] it was 95%; in assay [4], 90.6%.

For `COc1cc2c(Nc3ccc(Br)cc3F)ncnc2cc1OCC1CCN(C)CC1`, the residual activity turned out to be 16.1% in assay [1], 96.2% in assay [2], 49.3% in assay [3] and 100% in assay [4].
